Assay results: a melting point compilation (Tetko et al.; mined from patent text by program, amines drawn as free bases though some values may be those of a salt)

SMILES	melting point
COCN1C(C)=NC(C)=C(C(=O)NCCCN2CCC(C(=O)OC)(c3ccccc3)CC2)C1c1ccc(F)c(F)c1 (stereo not drawn)	53 to 57 °C
CNCCCNC(=O)[C@@H]1CCCN1S(=O)(=O)c1ccc(Cl)c(COc2cccc3c(C)cc(C)nc23)c1Cl	85 °C
CCCCCc1c(C(C)C)nc(C(C)C)c(CO)c1-c1cccc(O)c1	121 to 122 °C
O=P(O)(O)c1cccc(OCc2ccc3ccccc3c2)c1	131 to 134 °C
CN(C(=O)CCN)c1nnc(-c2cccnc2)s1	110 to 112 °C
Cc1ccc(S(=O)(=O)NC[C@H]2CN3C(=O)C[C@H]3O2)cc1 (racemic)	123 to 125 °C
Cc1nccn1C(C)CC(O)(c1ccccc1)c1ccccc1 (stereo not drawn)	168 to 169 °C
CCCN1CCCC1CNC(=O)c1c(OC)ccc(Br)c1OC (single isomer, unassigned; (-))	103 to 104 °C
Cc1c(C)c2c(c(C)c1N)CC(C)(CN1CCC(CCCc3ccccc3)CC1)O2 (stereo not drawn)	79 to 80 °C
CNC(=O)SC(C(=O)O)c1ccccc1 (stereo not drawn)	128 to 129 °C
CCC(=C(c1ccccc1)c1ccc(N(CCN(CC)CC)S(C)(=O)=O)cc1)c1ccc(OC)cc1	120 to 130 °C
COc1ccc(C=CC(=O)N2CCN(C(=O)C=Cc3ccc(OC)c(C(F)F)c3)CC2)cc1C(F)F	259 to 261 °C
O=C(O)CCCn1ccc(=O)c(OCc2ccccc2)c1C(O)c1ccccc1 (stereo not drawn)	205 to 210 °C
C=CCOc1cc2c(cc1C=CC)N(CC=C(C)C)C(=O)CC2	87 to 88 °C
CCc1ccc(N(Cc2ccc(C(=O)N(C)C)cc2)C(=O)Nc2c(C(C)C)cccc2C(C)C)cc1	170 to 172 °C
CCSN(C)C(=O)Nc1ccc(C)c(Cl)c1	< 50 °C
N#Cc1ccc(N2CC(CO)OC2=O)cc1 (stereo not drawn)	186 °C
CCOC(=O)C(=CNc1ncc(OC)c2ccccc12)C(=O)OCC	150 to 153 °C
COCCCOc1ccc(CCCOC(=O)NS(=O)(=O)NCCOC(C)C)c(Oc2ncc(C(F)(F)F)cc2Cl)c1	67.4 to 68 °C
NC=C1C(=O)c2ccccc2OC1c1ccccc1 (stereo not drawn)	149 to 152 °C
O=c1oc(Cc2ccc(Oc3ccccc3)cc2)nn1-c1ccccc1Cl	85 °C
Cc1c(C(=O)O)ccc(Cl)c1O	191 °C
O=C1NC(=O)C(=Cc2cc(O)c(O)c([N+](=O)[O-])c2)S1	295 to 298 °C
OCc1cc(Br)cnc1Cl	86.7 to 87.5 °C
O=C(c1ccc(F)cc1)C1CCN(CC2CSc3ccc(F)cc3C2)CC1 (stereo not drawn)	98 to 102 °C

SMILES	melting point
NC(=O)NN=C1CC(O)C(C=Cc2ccccc2)=C1CCCCCCC(=O)O (stereo not drawn)	208 to 210 °C
O=[N+]([O-])c1cn2c(n1)OC[C@@H](OCc1ccc(-c3nc4cc(OC(F)(F)F)ccc4[nH]3)cc1)C2	98 to 99 °C
C=CCc1cc2c(cc1O)C(C)(C)C(O)O2 (stereo not drawn)	66 to 67 °C
COC(=O)c1cc(C(=O)NCC(C)C)c2cc(Cc3ccc(F)cc3)cnc2c1O	178 to 179 °C
COc1ccc(C(=O)Nc2nc3ccc(N(C)C)cc3c(NCc3ccccc3)c2C#N)cc1	185 °C
CCOC(=O)c1cnn(-c2ccccn2)c1Cl	50 to 51 °C
CCC(C(C)C)C(CN)CC(=O)O (stereo not drawn)	170 to 180 °C
CC(=O)OC1CC2C3CCC(C(C)CCCC(C)C)C3(C)CCC2C2(C)CC(F)C(O)CC12 (stereo not drawn)	148 to 150 °C
COc1cc(CCCC2OC(=O)NC2=O)ccc1OCc1nc(-c2ccccc2)sc1C (stereo not drawn)	128 to 129 °C
Nc1cccc2cc(-c3ccccn3)[nH]c12	165 to 166 °C
CC(=O)NC[C@H]1CN(c2ccc(-c3ncon3)c(F)c2)C(=O)O1	197 to 199 °C
COc1ccc(C2(C(=O)Oc3ccc(C(=O)NO)cc3)CCCC2)cc1	143 to 144 °C
O=c1c2cc(C=NO)ccc2oc2ncccc12	254 to 256 °C
CCCCCCCCCCCCc1c[nH]c2cc(C(=O)OC)ccc12	85 to 89 °C
COc1ccc(C2=Cc3ccc(O)cc3OC2)cc1	161 to 163 °C
CNC(=S)N1CCc2nc(N)sc2C1	188 to 190 °C
CCOc1ccc2[nH]c(=O)n(C3CCOCC3)c2c1	155 °C
Cc1cccc2c1C(=O)N1CCCC1C(=O)N2 (stereo not drawn)	212 to 214 °C
O=C(Oc1ccccc1)c1ccc2[nH]nnc2c1	156 to 160 °C
Cc1nc(-n2cc(C(=O)NCc3ccccc3)nn2)sc1C(=O)NCc1ccccc1	178 to 180 °C
Cc1c(Cl)ccc(C(=O)O)c1F	198 °C
CC(C)CNCc1cc2cc(NC(=O)c3ccc(OCC4CCOC4)cc3)ccc2n1C (stereo not drawn)	125 to 126 °C
CC(C)(C)c1cc(C(C)(C)C)n(Cc2ccc(CNc3ccc(CCC(=O)O)c(F)c3)cc2)n1	146 to 147 °C
CCOC(=O)c1c(-c2cccc(F)c2)c(C#N)n2c1CN(C(=O)OC(C)(C)C)CC2	129 to 131 °C
CC(C)(C)C(=O)CC(=O)c1cccc(C(=O)CC(=O)C(C)(C)C)c1	106 to 108 °C

SMILES	melting point
CS(=O)(=O)NC(=O)N1CC1C#N (stereo not drawn)	110 to 112 °C
CCOCc1nc2c(N)nc3ccccc3c2n1NC(CC)CC	125 to 128 °C
Cc1ccc(C=NNc2nsc3ccccc23)cc1	294 °C
CC1=CC(O)C(OC(=O)c2ccc([N+](=O)[O-])cc2)C(C)(C)CC1=O (stereo not drawn)	148 to 150 °C
CC(C)(C)C(=O)OCc1cc2c(cc1C#Cc1ccccc1)NC(=O)CC(c1cccc(C#N)c1)=N2	218 °C
O=C1CCC(N2Cc3c(OCc4ccc(CN5CCN(S(=O)(=O)C6CC6)CC5)cc4)cccc3C2=O)C(=O)N1 (stereo not drawn)	145 to 147 °C
CCOC(=O)c1cnc2c(cnn2CC)c1Cl	55 to 60 °C
Oc1ccc(C2(c3ccc(O)cc3)c3ccccc3-c3ccccc32)cc1	215 °C
COc1cccc(-c2nc3n(n2)CCc2cc(OC)ccc2-3)c1	101 to 103 °C
O=C(Nc1ccc2c(c1)CCC(CCl)=C2)c1ccc(-c2ccc(Cl)cc2)cc1	179 to 181 °C
CCCCCCCCCCCCCCCCc1ccc(S(=O)(=O)Nc2nncs2)cc1	118 to 119 °C
COc1cccc(OC)c1C(=O)NC1=NN=C(C(C)(C)C)CS1	175 to 177 °C
CC(=O)NC[C@H]1CN(c2ccc(N3CC(O[Si](C)(C)C(C)(C)C)C3)c(F)c2)C(=O)O1	184 °C
O=c1c2cn(Cc3ccccc3F)c3ccccc3c-2nn1-c1ccc(Cl)cc1	338 to 339 °C
CN1CCC2(CC1)NC(=S)N(c1ccc(C#N)c(C(F)(F)F)c1)C2=O	229 to 230 °C
COC(=O)Cc1cc(C(=O)c2ccccc2Cl)ccc1O	119 °C
COC(=O)[C@H](CC(C)C)NC(=O)OCC1c2ccccc2-c2ccccc21	86 to 87 °C
COC(=O)c1cc(I)c(OC)c2c1OCO2	162 to 164 °C
CCOC(=O)c1cc2c3n(ccc-2n1)CC(C)=N3	201 to 203 °C
COc1ccc2cncc(CCl)c2c1	256 to 257 °C
Cn1nc(Cl)cc(Nc2ccncn2)c1=O	233 to 235 °C
Nc1cccc(-c2ccc(C3CCNC3=O)cc2F)n1 (stereo not drawn)	185 to 188 °C
O=C1c2cc(Cl)c(Cl)cc2C(O)N1CCO[N+](=O)[O-] (stereo not drawn)	145 to 147 °C
